According to patent publication US10597388B2, “Pyridazinone herbicides” (FMC CORPORATION, priority 2014, dated 2020):

Columns and labels:
Test in all cases: Test E greenhouse herbicide test, pre- and postemergence
Type in all cases: in vivo
[1] = tested on: waterhemp (common waterhemp, Amaranthus rudis)
Summary of the method: (§1)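 Greenhouse pots; preemergence on silt loam, postemergence on plants 1- to 4-leaf (2 to 18 cm) grown in peat, vermiculite and nutrient medium. Test chemicals formulated in non-phytotoxic solvent with surfactant. Ratings taken after 14 to 21 d.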

[2] = tested on: goosegrass (Eleusine indica); settings: Preemergence
Summary of the method: as §1

[3] = tested on: nightshade (eastern black nightshade, Solanum ptycanthum); settings: Preemergence
Summary of the method: as §1

[4] = tested on: surinam grass (Brachiaria decumbens); settings: Preemergence
Summary of the method: as §1

[5] = tested on: field bindweed (Convolvulus arvensis)
Summary of the method: as §1

[6] = tested on: beggarticks (hairy beggarticks, Bidens pilosa)
Summary of the method: as §1

[7] = tested on: arrowleaf sida (Sida rhombifolia)
Summary of the method: as §1

[8] = tested on: momingglory (Ipomoea coccinea); settings: Preemergence
Summary of the method: as §1

[9] = tested on: barnyardgrass (Echinochloa crus-galli)
Summary of the method: as §1

[10] = tested on: Italian ryegrass (Lolium multiflorum)
Summary of the method: as §1

[11] = tested on: ragweed (common ragweed, Ambrosia elatior)
Summary of the method: as §1

[12] = tested on: horseweed (Conyza canadensis)
Summary of the method: as §1

[13] = 62 g ai/ha, Postemergence, scale 0 to 100 (0 no effect, 100 complete control)
[14] = 62 g ai/ha, Preemergence, scale 0 to 100 (0 no effect, 100 complete control)
[15] = 125 g ai/ha, Postemergence, scale 0 to 100 (0 no effect, 100 complete control)
[16] = 125 g ai/ha, Preemergence, scale 0 to 100 (0 no effect, 100 complete control)
[17] = 250 g ai/ha, Postemergence, scale 0 to 100 (0 no effect, 100 complete control)
[18] = Postemergence, 31 g ai/ha, visual, scale 0 no effect to 100 complete control
[19] = Preemergence, 31 g ai/ha, scale 0 to 100, 0 no effect, 100 complete control
[20] = Preemergence, 250 g ai/ha, visual, scale 0 no effect to 100 complete control
[21] = 62 g ai/ha, scale 0 to 100 (0 no effect, 100 complete control)
[22] = 125 g ai/ha, scale 0 to 100 (0 no effect, 100 complete control)
[23] = 31 g ai/ha, scale 0 to 100, 0 no effect, 100 complete control
[24] = 250 g ai/ha, visual, scale 0 no effect to 100 complete control

Cc1nn(C)c(=O)c(-c2ccc(Br)c3ccccc23)c1O [Compound 75]
75: Plant response rating, Arrowleaf Sida [7, 14] | Plant response rating, Ryegrass, Italian [10, 18]
40: Plant response rating, Horseweed [12, 18]
20: Plant response rating, Barnyardgrass [9, 14] | Plant response rating, Barnyardgrass [9, 18] | Plant response rating, Barnyardgrass [9, 19]
50: Plant response rating, Waterhemp [1, 19] | Plant response rating, Arrowleaf Sida [7, 19] | Plant response rating, Horseweed [12, 13] | Plant response rating, Horseweed [12, 17]
55: Plant response rating, Ragweed [11, 18]
60: Plant response rating, Waterhemp [1, 14] | Plant response rating, Surinam Grass [4, 22] | Plant response rating, Morningglory [8, 22] | Plant response rating, Ragweed [11, 15] | Plant response rating, Horseweed [12, 15]
0: Plant response rating, Goosegrass [2, 21] | Plant response rating, Goosegrass [2, 22] | Plant response rating, Goosegrass [2, 23] | Plant response rating, Nightshade [3, 21] | Plant response rating, Nightshade [3, 23] | Plant response rating, Field Bindweed [5, 19] | Plant response rating, Morningglory [8, 23]
98: Plant response rating, Field Bindweed [5, 20] | Plant response rating, Arrowleaf Sida [7, 20]
85: Plant response rating, Field Bindweed [5, 17] | Plant response rating, Field Bindweed [5, 18] | Plant response rating, Ryegrass, Italian [10, 15]
65: Plant response rating, Barnyardgrass [9, 20] | Plant response rating, Ragweed [11, 14]
5: Plant response rating, Goosegrass [2, 24] | Plant response rating, Surinam Grass [4, 23] | Plant response rating, Field Bindweed [5, 14]
25: Plant response rating, Barnyardgrass [9, 15]
90: Plant response rating, Waterhemp [1, 13] | Plant response rating, Waterhemp [1, 15] | Plant response rating, Nightshade [3, 22] | Plant response rating, Surinam Grass [4, 24] | Plant response rating, Field Bindweed [5, 13] | Plant response rating, Arrowleaf Sida [7, 16] | Plant response rating, Ryegrass, Italian [10, 17] | Plant response rating, Ragweed [11, 17]
70: Plant response rating, Arrowleaf Sida [7, 13] | Plant response rating, Arrowleaf Sida [7, 18] | Plant response rating, Ragweed [11, 13]
95: Plant response rating, Waterhemp [1, 17] | Plant response rating, Beggarticks [6, 13]
35: Plant response rating, Surinam Grass [4, 21] | Plant response rating, Beggarticks [6, 19] | Plant response rating, Barnyardgrass [9, 16] | Plant response rating, Ragweed [11, 19]
30: Plant response rating, Morningglory [8, 21] | Plant response rating, Barnyardgrass [9, 13] | Plant response rating, Barnyardgrass [9, 17]
80: Plant response rating, Waterhemp [1, 18] | Plant response rating, Field Bindweed [5, 15] | Plant response rating, Beggarticks [6, 14] | Plant response rating, Arrowleaf Sida [7, 15] | Plant response rating, Arrowleaf Sida [7, 17] | Plant response rating, Ryegrass, Italian [10, 13] | Plant response rating, Ragweed [11, 16]
100: Plant response rating, Waterhemp [1, 16] | Plant response rating, Waterhemp [1, 20] | Plant response rating, Nightshade [3, 24] | Plant response rating, Field Bindweed [5, 16] | Plant response rating, Beggarticks [6, 15] | Plant response rating, Beggarticks [6, 16] | Plant response rating, Beggarticks [6, 17] | Plant response rating, Beggarticks [6, 18] | Plant response rating, Beggarticks [6, 20] | Plant response rating, Morningglory [8, 24] | Plant response rating, Ryegrass, Italian [10, 14] | Plant response rating, Ryegrass, Italian [10, 16] | Plant response rating, Ryegrass, Italian [10, 19] | Plant response rating, Ryegrass, Italian [10, 20] | Plant response rating, Ragweed [11, 20]

Cc1ccc2sc(Br)c(-c3c(O)c(C)nn(C)c3=O)c2c1 [Compound 79]
75: Plant response rating, Waterhemp [1, 19] | Plant response rating, Arrowleaf Sida [7, 16] | Plant response rating, Arrowleaf Sida [7, 19] | Plant response rating, Arrowleaf Sida [7, 20] | Plant response rating, Ryegrass, Italian [10, 19]
90: Plant response rating, Field Bindweed [5, 14] | Plant response rating, Morningglory [8, 22] | Plant response rating, Ragweed [11, 18] | Plant response rating, Horseweed [12, 17] | Plant response rating, Horseweed [12, 18]
80: Plant response rating, Waterhemp [1, 17] | Plant response rating, Nightshade [3, 23] | Plant response rating, Surinam Grass [4, 24] | Plant response rating, Field Bindweed [5, 18] | Plant response rating, Arrowleaf Sida [7, 14] | Plant response rating, Ryegrass, Italian [10, 14] | Plant response rating, Ryegrass, Italian [10, 17]
30: Plant response rating, Barnyardgrass [9, 14] | Plant response rating, Barnyardgrass [9, 19] | Plant response rating, Ryegrass, Italian [10, 18]
15: Plant response rating, Barnyardgrass [9, 13] | Plant response rating, Barnyardgrass [9, 18]
40: Plant response rating, Surinam Grass [4, 23] | Plant response rating, Barnyardgrass [9, 16] | Plant response rating, Ryegrass, Italian [10, 13]
70: Plant response rating, Waterhemp [1, 15] | Plant response rating, Arrowleaf Sida [7, 17] | Plant response rating, Ryegrass, Italian [10, 15]
20: Plant response rating, Barnyardgrass [9, 15] | Plant response rating, Barnyardgrass [9, 17]
95: Plant response rating, Field Bindweed [5, 13] | Plant response rating, Field Bindweed [5, 15] | Plant response rating, Field Bindweed [5, 17] | Plant response rating, Ragweed [11, 15] | Plant response rating, Horseweed [12, 13] | Plant response rating, Horseweed [12, 15]
98: Plant response rating, Ragweed [11, 13]
100: Plant response rating, Waterhemp [1, 14] | Plant response rating, Waterhemp [1, 16] | Plant response rating, Waterhemp [1, 20] | Plant response rating, Nightshade [3, 21] | Plant response rating, Nightshade [3, 22] | Plant response rating, Nightshade [3, 24] | Plant response rating, Field Bindweed [5, 16] | Plant response rating, Field Bindweed [5, 20] | Plant response rating, Beggarticks [6, 13] | Plant response rating, Beggarticks [6, 14] | Plant response rating, Beggarticks [6, 15] | Plant response rating, Beggarticks [6, 16] | Plant response rating, Beggarticks [6, 17] | Plant response rating, Beggarticks [6, 18] | Plant response rating, Beggarticks [6, 19] | Plant response rating, Beggarticks [6, 20] | Plant response rating, Morningglory [8, 24] | Plant response rating, Ryegrass, Italian [10, 16] | Plant response rating, Ryegrass, Italian [10, 20] | Plant response rating, Ragweed [11, 14] | Plant response rating, Ragweed [11, 16] | Plant response rating, Ragweed [11, 17] | Plant response rating, Ragweed [11, 19] | Plant response rating, Ragweed [11, 20] | Plant response rating, Horseweed [12, 14] | Plant response rating, Horseweed [12, 16] | Plant response rating, Horseweed [12, 19] | Plant response rating, Horseweed [12, 20]
65: Plant response rating, Goosegrass [2, 24]
85: Plant response rating, Morningglory [8, 21]
60: Plant response rating, Waterhemp [1, 13] | Plant response rating, Goosegrass [2, 21] | Plant response rating, Goosegrass [2, 22] | Plant response rating, Surinam Grass [4, 22] | Plant response rating, Field Bindweed [5, 19] | Plant response rating, Arrowleaf Sida [7, 15] | Plant response rating, Morningglory [8, 23]
50: Plant response rating, Waterhemp [1, 18] | Plant response rating, Goosegrass [2, 23] | Plant response rating, Surinam Grass [4, 21] | Plant response rating, Arrowleaf Sida [7, 13] | Plant response rating, Arrowleaf Sida [7, 18] | Plant response rating, Barnyardgrass [9, 20]
